Experimental findings from PMC12102759 (Protein Science : A Publication of the Protein Society, 2025) are described below.

Where two headings read alike, the source gives them in different places.

In the experiment the test system is PABPC1 PABC. The class given is binding, human. Conditions: DMS-BM library, bait PABPC1 PABC, row aa = residue at this position; for DMS-derived PSSM value, position S13 / DMS-derived PSSM value, position S15: S = wild type; for DMS-derived PSSM value, position L4 / DMS-derived PSSM value (averaged), position L2: L = wild type; for DMS-derived PSSM value, position K7: K = wild type.

Setting [1] is: prey ATXN2, peptide KSTLNPNAKEFNPRSF, E = wild type.
The mark [2] stands for this setting: prey ATXN2, peptide TLNPNAKEFNPRSFSQ, T = wild type.
Where [3] appears, read: prey ATXN2, peptide KSTLNPNAKEFNPRSF, N = wild type.
Where [4] appears, read: prey ATXN2, peptide TLNPNAKEFNPRSFSQ, P = wild type.
Setting [5] is: prey ATXN2, peptide TLNPNAKEFNPRSFSQ
[6] abbreviates: prey ATXN2, peptide TLNPNAKEFNPRSFSQ, F = wild type.
Where [7] appears, read: prey ATXN2, peptide KSTLNPNAKEFNPRSF, F = wild type.
Where [8] appears, read: prey ATXN2, peptide TLNPNAKEFNPRSFSQ, N = wild type.
Where [9] appears, read: prey ATXN2, TLNPNAKEFNPRSF(averaged) over the two overlapping peptides, F = wild type.
The mark [10] stands for this setting: prey ATXN2, TLNPNAKEFNPRSF(averaged) over the two overlapping peptides, N = wild type.
Where [11] appears, read: prey ATXN2, peptide KSTLNPNAKEFNPRSF, P = wild type.
Setting [12] is: prey ATXN2, peptide KSTLNPNAKEFNPRSF
Setting [13] is: prey ATXN2, peptide TLNPNAKEFNPRSFSQ, A = wild type.
The mark [14] stands for this setting: prey ATXN2, TLNPNAKEFNPRSF(averaged) over the two overlapping peptides.
The mark [15] stands for this setting: prey ATXN2, TLNPNAKEFNPRSF(averaged) over the two overlapping peptides, A = wild type.
Where [16] appears, read: prey ATXN2, peptide TLNPNAKEFNPRSFSQ, R = wild type.

For the substance “KSTLNPNAKEFNPRSF E10H (KSTLNPNAKHFNPRSF)”, the “DMS-derived PSSM value, position E10” value under setting [1] came out at 0.3776.
As for “TLNPNAKEFNPRSF(averaged) P4G (TLNGNAKEFNPRSF)”, under “prey ATXN2, TLNPNAKEFNPRSF(averaged) over the two overlapping peptides, P = wild type”, the “DMS-derived PSSM value (averaged), position P4” value turned out to be 0.00705.
In the case of TLNPNAKEFNPRSFSQ T1F (FLNPNAKEFNPRSFSQ), under setting [2], the “DMS-derived PSSM value, position T1” value is listed as 0.0001584.
Consider KSTLNPNAKEFNPRSF N5V (KSTLVPNAKEFNPRSF), for which the “DMS-derived PSSM value, position N5” value under setting [3] was 0.
As for “TLNPNAKEFNPRSFSQ P11K (TLNPNAKEFNKRSFSQ)”, the “DMS-derived PSSM value, position P11” value under setting [4] is listed as 0.
With “TLNPNAKEFNPRSFSQ S13I (TLNPNAKEFNPRIFSQ)”, the “DMS-derived PSSM value, position S13” value under setting [5] came to 0.
For KSTLNPNAKEFNPRSF N7K (KSTLNPKAKEFNPRSF), the “DMS-derived PSSM value, position N7” value under setting [3] amounted to 0.007258.
Regarding TLNPNAKEFNPRSFSQ P4Q (TLNQNAKEFNPRSFSQ), under setting [4], the “DMS-derived PSSM value, position P4” value came to 0.03549.
With TLNPNAKEFNPRSFSQ F9W (TLNPNAKEWNPRSFSQ), the “DMS-derived PSSM value, position F9” value under setting [6] was 0.6528.
Take “TLNPNAKEFNPRSFSQ P11V (TLNPNAKEFNVRSFSQ)”: under setting [4], the “DMS-derived PSSM value, position P11” value was 0.1131.
With “TLNPNAKEFNPRSFSQ F14L (TLNPNAKEFNPRSLSQ)”, the “DMS-derived PSSM value, position F14” value under setting [6] is 0.08923.
In the case of “KSTLNPNAKEFNPRSF F11G (KSTLNPNAKEGNPRSF)”, under setting [7], the “DMS-derived PSSM value, position F11” value came to 0.
On to TLNPNAKEFNPRSFSQ N5I (TLNPIAKEFNPRSFSQ), for which the “DMS-derived PSSM value, position N5” value under setting [8] amounted to 0.01004.
Consider KSTLNPNAKEFNPRSF A8L (KSTLNPNLKEFNPRSF), for which the “DMS-derived PSSM value, position A8” value (prey ATXN2, peptide KSTLNPNAKEFNPRSF, A = wild type) was 0.
Regarding TLNPNAKEFNPRSFSQ F9A (TLNPNAKEANPRSFSQ), under setting [6], the “DMS-derived PSSM value, position F9” value came to 0.
As to KSTLNPNAKEFNPRSF N5Y (KSTLYPNAKEFNPRSF), under setting [3], the “DMS-derived PSSM value, position N5” value was determined as 0.01612.
Turning to “TLNPNAKEFNPRSF(averaged) F14P (TLNPNAKEFNPRSP)”, the “DMS-derived PSSM value (averaged), position F14” value under setting [9] stood at 0.03538.
As for “TLNPNAKEFNPRSF(averaged) N3F (TLFPNAKEFNPRSF)”, under setting [10], the “DMS-derived PSSM value (averaged), position N3” value came out at 0.
For the substance “KSTLNPNAKEFNPRSF P13N (KSTLNPNAKEFNNRSF)”, under setting [11], the “DMS-derived PSSM value, position P13” value turned out to be 0.004405.
As to “TLNPNAKEFNPRSFSQ S15K (TLNPNAKEFNPRSFKQ)”, under setting [5], the “DMS-derived PSSM value, position S15” value stood at 0.007327.
For the substance KSTLNPNAKEFNPRSF L4I (KSTINPNAKEFNPRSF), the “DMS-derived PSSM value, position L4” value under setting [12] is 0.
“TLNPNAKEFNPRSFSQ N10I (TLNPNAKEFIPRSFSQ)”: the “DMS-derived PSSM value, position N10” value under setting [8] was 0.00743.
On to “TLNPNAKEFNPRSF(averaged) T1Y (YLNPNAKEFNPRSF)”, for which the “DMS-derived PSSM value (averaged), position T1” value (prey ATXN2, TLNPNAKEFNPRSF(averaged) over the two overlapping peptides, T = wild type) came to 0.168.
In the case of “KSTLNPNAKEFNPRSF F16S (KSTLNPNAKEFNPRSS)”, the “DMS-derived PSSM value, position F16” value under setting [7] is on record as 0.02635.
For TLNPNAKEFNPRSFSQ A6T (TLNPNTKEFNPRSFSQ), the “DMS-derived PSSM value, position A6” value under setting [13] worked out at 0.2659.
Regarding “TLNPNAKEFNPRSF(averaged) L2R (TRNPNAKEFNPRSF)”, under setting [14], the “DMS-derived PSSM value (averaged), position L2” value was 0.
Consider “TLNPNAKEFNPRSF(averaged) A6D (TLNPNDKEFNPRSF)”, for which the “DMS-derived PSSM value (averaged), position A6” value under setting [15] is reported as 0.
With “TLNPNAKEFNPRSF(averaged) N5K (TLNPKAKEFNPRSF)”, the “DMS-derived PSSM value (averaged), position N5” value under setting [10] turned out to be 0.009917.
For the substance TLNPNAKEFNPRSFSQ T1R (RLNPNAKEFNPRSFSQ), the “DMS-derived PSSM value, position T1” value under setting [2] came out at 0.08249.
As to TLNPNAKEFNPRSFSQ N3S (TLSPNAKEFNPRSFSQ), the “DMS-derived PSSM value, position N3” value under setting [8] is 0.4554.
For TLNPNAKEFNPRSFSQ N5G (TLNPGAKEFNPRSFSQ), the “DMS-derived PSSM value, position N5” value under setting [8] turned out to be 0.01384.
Consider KSTLNPNAKEFNPRSF N5A (KSTLAPNAKEFNPRSF), for which, under setting [3], the “DMS-derived PSSM value, position N5” value turned out to be 0.
“TLNPNAKEFNPRSF(averaged) F14L (TLNPNAKEFNPRSL)”: the “DMS-derived PSSM value (averaged), position F14” value under setting [9] is 0.193.
In the case of “TLNPNAKEFNPRSF(averaged) A6I (TLNPNIKEFNPRSF)”, the “DMS-derived PSSM value (averaged), position A6” value under setting [15] is recorded as 0.01774.
Regarding TLNPNAKEFNPRSFSQ A6M (TLNPNMKEFNPRSFSQ), the “DMS-derived PSSM value, position A6” value under setting [13] turned out to be 0.
Consider “KSTLNPNAKEFNPRSF F16Y (KSTLNPNAKEFNPRSY)”, for which the “DMS-derived PSSM value, position F16” value under setting [7] was 0.101.
“KSTLNPNAKEFNPRSF P13H (KSTLNPNAKEFNHRSF)”: the “DMS-derived PSSM value, position P13” value under setting [11] is listed as 0.
On to “TLNPNAKEFNPRSFSQ P11H (TLNPNAKEFNHRSFSQ)”, for which the “DMS-derived PSSM value, position P11” value under setting [4] turned out to be 0.157.
In the case of TLNPNAKEFNPRSFSQ K7P (TLNPNAPEFNPRSFSQ), the “DMS-derived PSSM value, position K7” value under setting [5] is on record as 0.006619.
Regarding TLNPNAKEFNPRSFSQ T1S (SLNPNAKEFNPRSFSQ), under setting [2], the “DMS-derived PSSM value, position T1” value was 0.004758.
For the substance KSTLNPNAKEFNPRSF L4F (KSTFNPNAKEFNPRSF), the “DMS-derived PSSM value, position L4” value under setting [12] worked out at 0.
As to “TLNPNAKEFNPRSFSQ R12Q (TLNPNAKEFNPQSFSQ)”, the “DMS-derived PSSM value, position R12” value under setting [16] is recorded as 0.0158.
Consider “KSTLNPNAKEFNPRSF N12E (KSTLNPNAKEFEPRSF)”, for which the “DMS-derived PSSM value, position N12” value under setting [3] is given as 0.06073.
As to TLNPNAKEFNPRSFSQ F9E (TLNPNAKEENPRSFSQ), under setting [6], the “DMS-derived PSSM value, position F9” value was found to be 0.05407.
On to TLNPNAKEFNPRSFSQ E8H (TLNPNAKHFNPRSFSQ), for which the “DMS-derived PSSM value, position E8” value (prey ATXN2, peptide TLNPNAKEFNPRSFSQ, E = wild type) is listed as 0.0374.
On to “KSTLNPNAKEFNPRSF S15M (KSTLNPNAKEFNPRMF)”, for which the “DMS-derived PSSM value, position S15” value under setting [12] is on record as 0.01897.
In the case of “TLNPNAKEFNPRSFSQ P11M (TLNPNAKEFNMRSFSQ)”, the “DMS-derived PSSM value, position P11” value under setting [4] is 0.01106.
Turning to “TLNPNAKEFNPRSF(averaged) R12E (TLNPNAKEFNPESF)”, under “prey ATXN2, TLNPNAKEFNPRSF(averaged) over the two overlapping peptides, R = wild type”, the “DMS-derived PSSM value (averaged), position R12” value is reported as 0.01393.
On to “TLNPNAKEFNPRSF(averaged) N10S (TLNPNAKEFSPRSF)”, for which the “DMS-derived PSSM value (averaged), position N10” value under setting [10] is recorded as 0.02002.
Take TLNPNAKEFNPRSFSQ P4Y (TLNYNAKEFNPRSFSQ): under setting [4], the “DMS-derived PSSM value, position P4” value is 0.
On to “KSTLNPNAKEFNPRSF E10L (KSTLNPNAKLFNPRSF)”, for which, under setting [1], the “DMS-derived PSSM value, position E10” value worked out at 0.
Consider “TLNPNAKEFNPRSFSQ R12H (TLNPNAKEFNPHSFSQ)”, for which the “DMS-derived PSSM value, position R12” value under setting [16] is given as 0.186.
Regarding “KSTLNPNAKEFNPRSF S15K (KSTLNPNAKEFNPRKF)”, the “DMS-derived PSSM value, position S15” value under setting [12] was found to be 0.
Take “TLNPNAKEFNPRSF(averaged) N5F (TLNPFAKEFNPRSF)”: under setting [10], the “DMS-derived PSSM value (averaged), position N5” value is on record as 0.03844.
For “KSTLNPNAKEFNPRSF F16Q (KSTLNPNAKEFNPRSQ)”, under setting [7], the “DMS-derived PSSM value, position F16” value came to 0.002875.
For the substance “TLNPNAKEFNPRSF(averaged) L2V (TVNPNAKEFNPRSF)”, under setting [14], the “DMS-derived PSSM value (averaged), position L2” value is 0.005447.
Regarding “TLNPNAKEFNPRSFSQ S13P (TLNPNAKEFNPRPFSQ)”, the “DMS-derived PSSM value, position S13” value under setting [5] was 0.0852.
Consider KSTLNPNAKEFNPRSF T3E (KSELNPNAKEFNPRSF), for which the “DMS-derived PSSM value, position T3” value (prey ATXN2, peptide KSTLNPNAKEFNPRSF, T = wild type) was 0.2365.
“TLNPNAKEFNPRSF(averaged) N5D (TLNPDAKEFNPRSF)”: the “DMS-derived PSSM value (averaged), position N5” value under setting [10] was 0.03885.
On to “KSTLNPNAKEFNPRSF E10K (KSTLNPNAKKFNPRSF)”, for which, under setting [1], the “DMS-derived PSSM value, position E10” value worked out at 0.06317.
As for TLNPNAKEFNPRSFSQ K7Q (TLNPNAQEFNPRSFSQ), under setting [5], the “DMS-derived PSSM value, position K7” value is given as 0.008943.
Regarding “TLNPNAKEFNPRSF(averaged) F14V (TLNPNAKEFNPRSV)”, the “DMS-derived PSSM value (averaged), position F14” value under setting [9] was 0.12.
On to TLNPNAKEFNPRSFSQ F9I (TLNPNAKEINPRSFSQ), for which the “DMS-derived PSSM value, position F9” value under setting [6] was 0.
For KSTLNPNAKEFNPRSF N5P (KSTLPPNAKEFNPRSF), the “DMS-derived PSSM value, position N5” value under setting [3] amounted to 0.
